Assay results reported in PMC6894747 (PLoS Pathogens, 2019).
Positions of bridges follow the written chain, without caps; N, C: chain ends. Residues, ends and D or L forms follow the SMILES beside them. No end group written: not given here.

Assays:
[1] = rhesus monkeys, 10 mg/kg i.v. daily for one month, within two months; indirect ELISA
Procedure: After incubation at 4 °C for 2 h and washes with PBS-T for three times, we added the serially 10-fold diluted plasma of the PBS- or peptide-treated rhesus monkeys. Goat Anti-Monkey IgG H&L (HRP) (Abcam) were incubated for 1 h at 37 °C and washed for five times.

[2] = test system: HIV-1 IIIB (subtype B, X4); assay type: cell-based; details: for IC50: IIIB (subtype B, X4)
Procedure: (§2) Briefly, 1×10^5/mL MT-2 or M7 cells were infected with different HIV-1 viruses at 100 TCID50 (50% tissue culture infective dose) in the presence or absence of peptides at graded concentrations overnight. Then the culture supernatants were replaced with equal volume of fresh medium. On the fourth day post-infection, supernatants were collected and mixed with equal volume of 5% Triton X-100. […] The IC50 values were calculated with CalcuSyn software [35–36], and inhibition curves of best fit were generated with GraphPad Prism.

in vivo = experiment: in vivo
Procedure: The samples were then centrifuged (3200 rpm for 10 min at 4 °C), and plasma was aliquoted and kept frozen until analysis.
After being coated, the plate was washed three times with PBS-T to remove the excess antibody. The remaining active sites on the plate were blocked by the addition of 150 μL 2% milk for 2 h at 37 °C. […] Then, HRP-labeled rabbit anti-mouse IgG (Sigma, USA) incubated at 37 °C for 1 h. The substrate TMB reagent were added and incubated for 5 min, resulting in the development of a blue color. Color development was stopped by the stop solution (1M H2SO4 50 μL/well). Absorbance at 450 nm was determined by an ELISA reader (Ultra 384, Tecan; Tecan, Research Triangle Park, NC).

human IgG = experiment: ELISA binding to human IgG; details: for binding to human IgG: ELISA, dose-dependent, triplicate
Procedure: Next, different concentrations of human or rhesus monkey IgG were added to the peptide-coated plate and incubated at 37 °C for 1 h. Rabbit anti-human IgG-HRP (1:3000 diluted) was added to each well and incubated at 37 °C for another 1 h. Afterwards, the bound IgG-HRP was detected by addition of the HRP substrate TMB. The reaction was terminated by addition of 1 M H2SO4 50 μL. Absorbance at 450 nm was measured using an ELISA reader (Ultra 384; Tecan, Research Triangle Park, NC).
The data was fitted to the “one site – specific binding” using GraphPad Prism. The standard error (SE) is given for a sample size of three replicates per data point.

ICR mice = experiment: Safety of IBP-CP24 for ICR mice; assay type: in vivo; details: for serum ALT level / serum creatinine level: i.p., CP24 10 mg/kg, IBP-CP24 10 or 100 mg/kg, before and 5 h, 1, 4 days post-injection
Procedure: Body weight changes of mice at different time points were monitored. Creatinine and ALT in the sera were measured by using the creatinine and ALT assay kits (NJJCBIO, Nanjing, China) before injection and 5 h, 1, and 4 days post-injection, respectively. All mice were sacrificed at day 15 post-injection, and the livers and kidneys were collected for haematoxylin and eosin (H&E) staining.

rhesus monkey IgG = experiment: Isothermal titration calorimetry (ITC); assay type: binding; details: 300 μM peptide injected into 30 μM rhesus monkey IgG, PBS, 25 °C
Procedure: ITC assay was performed with an ITC microcalorimeter instrument (NANO ITC, TA Instruments, Lindon, UT) as described previously. In brief, 300 μM peptides were dissolved in PBS and injected into the chamber containing 30 μM of rhesus monkey IgG. The experiments were carried out at 25 °C. The time between injections was 300 s, and the stirring speed was 300 rpm. The heats of dilution were determined in control experiments by injecting peptides into PBS and then subtracting from the heats produced in the corresponding peptide-IgG binding experiments. Data acquisition and analysis were performed using the Origin software, and the best fitting curves were generated with GraphPad Prism.

MT-2 cells = experiment: Cytotoxicity assay (CCK-8); assay type: cell-based; details: for in vitro cytotoxicity to MT-2 cells: up to 5 μM, 48 h, CCK-8, triplicate
Procedure: (§1) The potential cytotoxicity of peptides on MT-2 and M7 cells was measured by using the Cell Counting Kit-8 according to the manufacturer’s instructions (CCK-8, Dojindo Laboratories, Kumamoto, Japan). Briefly, 100 μL of a peptide at graded concentrations were added to equal volumes of cells (10^4 cells/well) in a 96-well plate. Cell viability was evaluated using the CCK-8 kit after incubation at 37 °C for 2 days. Incubation with CCK-8 reagents at 37 °C for another 4 h, the absorbance at 450 nm was measured with an ELISA reader, and the percentage of cytotoxicity was calculated.

M7 cells = experiment: Cytotoxicity assay (CCK-8); assay type: cell-based; details: up to 5 μM, 48 h, triplicate
Procedure: as §1

HIV-1 JR-CSF = experiment: Prophylactic efficacy against HIV-1 challenge in humanized mice; assay type: in vivo, humanized NRG (NRG-hu HSC) mice; details: for cell-associated HIV-1 DNA and RNA in spleen and bone marrow: day 28 post-infection, real-time PCR; for mice HIV-1 viremia-positive at 7 dpi / mice with viremia at 14 dpi / viral load at 7 dpi: humanized mice; for mice HIV-1 viremia-positive at 7 dpi: 20 mg/kg i.p. 2 h before challenge, 6 h post-infection and daily for 3 days, CP24 n = 8, IBP-CP24 n = 7; for mice with viremia at 14 dpi / viral load at 7 dpi: 20 mg/kg i.p. prophylactic regimen; for viral load at 7 dpi: plasma HIV-1 RNA
Procedure: The mice were challenged with HIV-1 JR-CSF (5 ng p24/mouse) through retro-orbital injection at 2 h post-treatment. Then the mice were treated with PBS or peptides at 6 hours post-infection and once every day for 3 consecutive days. Plasma samples were obtained for viral load determination at days 0, 7, 14, 21 and 28 post-infection.
HIV-1 genomic RNA was purified from plasma by using the QIAamp Viral RNA Mini Kit. The RNA was reverse-transcribed and quantitatively detected by real-time PCR with the TaqMan Fast Virus 1-Step PCR kit (Thermo Fisher Scientific). We used the forward primer 5’-[…]-3’ and the reverse primer 5’-[…]-3’ to detect the HIV gag gene. The probe (FAM-[…]-QSY7) used for detection was ordered from Applied Biosystems, and the reactions were set up following the manufacturer’s guidelines and were run on the QuantStudio 6 Flex PCR system (Applied Biosystems). The limit of detection of each real-time PCR was 4 copies per reaction. Accordingly, owing to the relatively small volume of plasma in mice (about 50–100 μL total blood), the limit of detection was 400 copies/mL plasma. The copy numbers below the detectable limit were set as 1. Triplicate reactions were performed for each sample.
To evaluate cell-associated HIV-1 DNA, total DNA was extracted from mouse spleen and bone marrow cells using the DNeasy Mini Kit (Qiagen). HIV-1 DNA was quantified by real-time PCR. DNA from serial dilutions of ACH2 cells, which contain 1 copy of the HIV genome in each cell, was used to create a standard curve.
To detect cell-associated HIV-1 RNA, total cell RNA was extracted from mouse spleen and bone marrow cells using the RNeasy Plus Mini Kit (Qiagen). The RNA was reverse-transcribed to cDNA and then quantified by real-time PCR, as described above. DNA from serial dilutions of ACH2 cells was used to generate a standard curve.

[3] = test system: HIV-1 Bal (subtype B, R5); assay type: cell-based; details: for IC50: Bal (subtype B, R5)
Procedure: as §2

[4] = rhesus monkey, plasma, iv, 10 mg/kg

Row | Molecule | peptide-specific antibodies in plasma [1] | IC50 [2] | AUC(0-t) (in vivo; [4]) | Cmax (in vivo; [4]) | MRT (in vivo; [4]) | half-life (in vivo; [4]) | binding to human IgG (human IgG) | serum ALT level (ICR mice; versus PBS) | serum creatinine level (ICR mice; versus PBS) | Kd (rhesus monkey IgG) | in vitro cytotoxicity to MT-2 cells (MT-2 cells) | in vitro cytotoxicity to M7 cells (M7 cells) | cell-associated HIV-1 DNA and RNA in spleen and bone marrow (HIV-1 JR-CSF) | mice HIV-1 viremia-positive at 7 dpi (HIV-1 JR-CSF) | mice with viremia at 14 dpi (HIV-1 JR-CSF) | viral load at 7 dpi (HIV-1 JR-CSF) | IC50 [3] | also measured
1 | CC[C@H](C)[C@H](NC(=O)[C@H](CC(C)C)NC(=O)[C@H](CCC(=O)O)NC(=O)[C@H](CCC(=O)O)NC(=O)[C@@H](NC(=O)[C@H](CCCCN)NC(=O)[C@H](CCCCN)NC(=O)[C@@H](NC(=O)[C@H](Cc1ccc(O)cc1)NC(=O)[C@H](CCC(=O)O)NC(=O)[C@H](CCC(=O)O)NC(=O)[C@@H](NC(=O)[C@H](CCCCN)NC(=O)[C@H](CCCCN)NC(=O)[C@H](CC(=O)O)NC(=O)[C@H](Cc1c[nH]c2ccccc12)NC(=O)[C@H](CCC(=O)O)NC(=O)[C@H](CCC(=O)O)NC(=O)[C@H](Cc1c[nH]c2ccccc12)NC(=O)[C@@H](NC(=O)[C@H](CCSC)NC(=O)[C@@H](NC(=O)[C@@H]1CSSC[C@H](NC(=O)[C@@H](N)CC(=O)O)C(=O)N[C@@H](C)C(=O)N[C@@H](Cc2c[nH]c3ccccc23)C(=O)N[C@@H](Cc2c[nH]cn2)C(=O)N[C@@H](CC(C)C)C(=O)NCC(=O)N[C@@H](CCC(=O)O)C(=O)N[C@@H](CC(C)C)C(=O)N[C@@H](C(C)C)C(=O)N[C@@H](Cc2c[nH]c3ccccc23)C(=O)N1)[C@@H](C)O)[C@@H](C)O)[C@@H](C)CC)[C@@H](C)O)[C@@H](C)CC)C(=O)N[C@@H](CCCCN)C(=O)N[C@@H](CCCCN)C(=O)N[C@@H](CO)C(=O)O [IBP-CP24] (H-DCAWHLGELVWCTMTWEEWDKKIEEYTKKIEELIKKS-OH; disulfide 2-12; N-terminus and C-terminus assumed) | no significant detectable antibodies | 0.0059 µM | 3430 µg·h/mL | 52700 ng/mL | 64.4 h | 46.1 h | higher binding affinity with human IgG than IBP alone | no significant difference | no significant difference | 0.946 µM | no significant in vitro cytotoxicity | no significant in vitro cytotoxicity | undetectable | 28.5% | 28.5% | about 2.5 log10 copies/mL | 0.00257 µM | fold more potent than CP24 against HIV-1 IIIB [2]: about 2.3 fold; fold longer half-life than CP24 (in vivo; rhesus monkey plasma, 10 mg/kg i.v.): 26 fold; fold higher AUC 0-t than CP24 (in vivo; rhesus monkeys, 10 mg/kg i.v.): about 18 fold; Tmax (in vivo; rhesus monkeys, single i.v. 10 mg/kg, sandwich ELISA, CP24 n = 2, IBP-CP24 n = 3): 4 h; Kd (human IgG; read-out: Estimated Kd of binding to human IgG, ELISA on peptide-coated plate, one site specific binding fit, ± SE, three replicates per point): 0.177 µM; in vivo toxicity, overall (ICR mice; 10 and 100 mg/kg i.p.): no obvious in vivo toxicity; H&E stained sections of liver and kidneys (ICR mice; day 15 post-injection, versus PBS): no pathological abnormality; non-cytotoxic concentration fold higher than IC50 for HIV-1 inhibition (MT-2 cells; 5 μM versus IC50, MT-2 and M7 cells): more than 800 fold; fold more potent than CP24 against HIV-1 Bal [3]: ~2.9 fold
2 | MTWEEWDKKIEEYTKKIEELIKKS [CP24, reference compound] | no significant detectable antibodies | 0.0195 µM | 180 µg·h/mL | 23600 ng/mL | 4.47 h | 1.69 h | could not bind with human IgG | no significant difference | no significant difference | 1000 µM | no in vitro cytotoxicity | no in vitro cytotoxicity | high levels | 50% | 62.5% | about 3.6 log10 copies/mL | 0.0101 µM | Tmax (in vivo; [4]): 2 h
